Holding throughout (type): biochemical
The target in one assay is Thrombin (Homo sapiens, UniProt P00734). Nature of the assay: Thrombin amidolytic assay (chromogenic substrate Chromozym TH). The following applies: room temperature, pH 7.5, 5 min preincubation; read-out: Inhibitory Activity (IC50) Thrombin IIa. The protocol: (§1) The compounds of the present invention are dissolved in buffer to give solutions containing concentrations such that assay concentrations range from about 0 to about 100 μM. In the assays for thrombin, prothrombinase and factor Xa, a synthetic chromogenic substrate is added to a solution containing test compound and the enzyme of interest and the residual catalytic activity of that enzyme is determined spectrophotometrically. The IC50 of a compound is determined from the substrate turnover. The IC50 is the concentration of test compound giving about 50% inhibition of the substrate turnover.
(§2) The factor Xa and thrombin assays are performed at room temperature, in 0.02 M Tris.HCl buffer, pH 7.5, containing 0.15 M NaCl. The rates of hydrolysis of the para-nitroanilide substrate S-2765 (Chromogenix) for factor Xa, and the substrate Chromozym TH (Boehringer Mannheim) for thrombin following preincubation of the enzyme with inhibitor for 5 minutes at room temperature, and are determined using the Softmax 96-well plate reader (Molecular Devices), monitored at 405 nm to measure the time dependent appearance of p-nitroaniline.

The target of a further assay is Factor Xa (Homo sapiens, UniProt P00742). Nature of the assay: Factor Xa amidolytic assay (chromogenic substrate S-2765). As to conditions: room temperature, pH 7.5, 5 min preincubation; read-out: Inhibitory Activity (IC50) Factor Xa Xa. As for the experimental part:
as §1, §2

In a further assay the target is Prothrombinase (Homo sapiens, UniProt P00742). The assay can be described thus: Prothrombinase inhibition assay, plasma free system. As to conditions: factor Xa 0.5 nM, factor Va 2 nM, PS:PC, 5 min preincubation; read-out: Inhibitory Activity (IC50) Prothrombinase IIase. As for the experimental part:
as §1
The prothrombinase inhibition assay is performed in a plasma free system with modifications to the method described by Sinha, U. et al., Thromb. Res., 75, 427-436 (1994). Specifically, the activity of the prothrombinase complex is determined by measuring the time course of thrombin generation using the p-nitroanilide substrate Chromozym TH. The assay consists of preincubation (5 minutes) of selected compounds to be tested as inhibitors with the complex formed from factor Xa (0.5 nM), factor Va (2 nM), phosphatidyl serine:phosphatidyl choline (25:75, 20 μM) in 20 mM Tris.HCl buffer, pH 7.5, containing 0.15 M NaCl, 5 mM CaCl2 and 0.1% bovine serum albumin. […] The rate of substrate cleavage is monitored at 405 nm for two minutes. […]

Data on two compounds can be found in patent US20020065303A1, “Bivalent phenylene inhibitors of factor Xa” (priority 2000, published 2002).

The structures appear in SMILES notation. pIC50: −log10 of the molar value.

Chain of Factor Xa (P00742 235-488 limits assumed): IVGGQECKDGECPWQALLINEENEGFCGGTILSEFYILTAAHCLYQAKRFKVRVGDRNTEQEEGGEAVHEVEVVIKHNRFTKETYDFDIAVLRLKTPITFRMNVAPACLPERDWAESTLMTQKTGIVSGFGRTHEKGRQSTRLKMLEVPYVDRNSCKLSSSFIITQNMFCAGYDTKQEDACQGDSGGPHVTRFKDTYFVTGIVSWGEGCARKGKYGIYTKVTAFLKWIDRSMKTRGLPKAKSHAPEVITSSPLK
Chain of Factor Xa (P00742 41-179 limits assumed): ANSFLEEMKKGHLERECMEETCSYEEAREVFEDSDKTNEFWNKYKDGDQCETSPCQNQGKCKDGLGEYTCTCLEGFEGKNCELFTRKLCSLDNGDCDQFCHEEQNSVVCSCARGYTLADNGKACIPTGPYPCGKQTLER
Chain of Prothrombinase (P00742 235-488 limits assumed): as the sequence (P00742 235-488 limits assumed) above
Chain of Prothrombinase (P00742 41-179 limits assumed): as the sequence (P00742 41-179 limits assumed) above
Chain of Prothrombinase (P12259 29-737 partner limits assumed): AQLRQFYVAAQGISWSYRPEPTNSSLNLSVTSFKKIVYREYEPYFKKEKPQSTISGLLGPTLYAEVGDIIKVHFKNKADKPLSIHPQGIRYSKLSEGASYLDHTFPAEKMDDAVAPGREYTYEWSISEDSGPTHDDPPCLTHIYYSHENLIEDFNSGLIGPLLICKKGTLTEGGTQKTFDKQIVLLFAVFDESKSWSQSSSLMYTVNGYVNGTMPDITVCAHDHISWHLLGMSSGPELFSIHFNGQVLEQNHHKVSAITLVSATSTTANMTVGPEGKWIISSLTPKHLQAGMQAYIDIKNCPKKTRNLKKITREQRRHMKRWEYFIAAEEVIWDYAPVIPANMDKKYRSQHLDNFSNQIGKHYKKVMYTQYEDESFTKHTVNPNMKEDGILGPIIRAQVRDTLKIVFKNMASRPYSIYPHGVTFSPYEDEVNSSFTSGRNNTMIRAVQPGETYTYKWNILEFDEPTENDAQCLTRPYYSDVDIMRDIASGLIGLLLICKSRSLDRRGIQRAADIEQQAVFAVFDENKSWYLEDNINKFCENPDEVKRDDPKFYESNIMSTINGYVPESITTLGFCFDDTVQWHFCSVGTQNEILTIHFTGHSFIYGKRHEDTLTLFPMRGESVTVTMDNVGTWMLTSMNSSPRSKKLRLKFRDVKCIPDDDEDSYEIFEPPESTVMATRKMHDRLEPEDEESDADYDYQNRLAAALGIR
Chain of Prothrombinase (P12259 1574-2224 partner limits assumed): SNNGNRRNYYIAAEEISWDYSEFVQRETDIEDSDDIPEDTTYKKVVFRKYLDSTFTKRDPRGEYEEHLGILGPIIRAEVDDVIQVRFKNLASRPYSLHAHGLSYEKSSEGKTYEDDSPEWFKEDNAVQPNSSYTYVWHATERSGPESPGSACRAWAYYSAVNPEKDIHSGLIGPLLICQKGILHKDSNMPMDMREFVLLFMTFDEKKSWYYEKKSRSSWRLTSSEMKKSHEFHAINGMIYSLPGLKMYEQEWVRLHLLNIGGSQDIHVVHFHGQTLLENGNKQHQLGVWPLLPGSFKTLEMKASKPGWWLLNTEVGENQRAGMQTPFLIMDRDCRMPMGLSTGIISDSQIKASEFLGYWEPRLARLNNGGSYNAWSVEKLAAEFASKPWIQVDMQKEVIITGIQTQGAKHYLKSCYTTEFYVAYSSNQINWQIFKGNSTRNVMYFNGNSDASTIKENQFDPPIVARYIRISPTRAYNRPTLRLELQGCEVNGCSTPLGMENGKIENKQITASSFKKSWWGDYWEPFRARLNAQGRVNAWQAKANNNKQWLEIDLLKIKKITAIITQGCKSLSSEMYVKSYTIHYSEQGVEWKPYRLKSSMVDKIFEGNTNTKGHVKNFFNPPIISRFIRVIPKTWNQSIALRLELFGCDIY

A word on the pIC50: it is the IC50 on a negative log10 scale, so that one unit is a factor of ten. With `COC(=O)C(Cc1cccc(C(=N)N)c1)NC(=O)c1ccc(OC2CCN(C(C)=N)CC2)cc1` (stereo not drawn), the pIC50 on Thrombin was 3.57; at Factor Xa, 6.70; at Prothrombinase it was 5.40.
`CC(=N)N1CCC(Oc2ccc(C(=O)NCc3cccc(C(=N)N)c3)cc2)CC1`: the pIC50 is 3.86 at Thrombin, 7.23 on Factor Xa and 4.70 on Prothrombinase.
